Data on 3 compounds can be found in US6479079B1, “Anticalcification treatments for fixed biomaterials” (Sulzer Carbomedics Inc., priority 1999, dated 2002).

Data set [1] deals with glutaraldehyde-fixed bovine pericardium tissue. In words: Calcium and phosphorus content after subcutaneous implantation in rats (Examples 2 and 3). Format: in vivo, Sprague-Dawley rats. The conditions noted are these: for Calcuim / Phosphorus: Bovine Pericardium, 60 days of implantation. How it is done: (§1) In a sterile hood, pieces of glutaraldehyde-fixed bovine pericardium tissue (Mitroflow Inc.; Richmond, British Columbia, Canada) porcine cusp tissue (Labcor; Belo Horizonte, Brazil) and porcine wall tissue (Labcor Inc.) were transferred into sterile tubes containing 1,2-octanediol solutions (5% […] (Aldrich Chemical), 40% ethanol and 55% 10 mM HEPES buffer). The tubes were transferred to a 37° C. incubator and maintained at 37° C. with gentle agitation for about 16 hours. After the treatment, the samples were transferred to solutions comprising 22% ethanol in 10 mM HEPES and stored for 14 days at 4° C. The final tissue to volume ratio for all treatments was approximately 27 ml/g.
(§2) For N-methyl pyrolidinone (NMP) treatments, pieces of glutaraldehyde-fixed bovine pericardium tissue (Mitroflow Inc.), porcine cusp tissue (Labcor Inc.) and porcine wall tissue (Labcor Inc.) were transferred into sterile tubes containing NMP. The tubes were incubated at room temperature for about 16 hours with occasional manual agitation. After the treatment, the tissue samples were transferred to 22% HEPES-buffered ethanol solutions and stored for 14 days at 4° C.
(§3) Samples treated with the 1,2-octanediol solutions and with NMP, as well as untreated samples of each tissue type, were provided to Charles Rivers Laboratories (Wilmington, Mass.) for implantation into rats. Seven rats per treatment group were analyzed. Prior to implantation, the tissue samples were rinsed for 3 minutes×3 in sterile PBS, accompanied by gentle agitation. The samples were implanted subcutaneously approximately 1 cm from the abdominal midline in 3 week old Sprague-Dawley rats and retrieved after 60 days of implantation. Unimplanted samples (one per tissue type per treatment) were used as unimplanted controls. After retrieval, the samples were analyzed for their calcium and phosphorus contents using a standard ICP methodology.
In a sterile hood, pieces of glutaraldehyde-fixed bovine pericardium tissue (Mitroflow Inc.) were transferred into sterile tubes containing a 45% solution of HEPES-buffered ethanol (45% ethanol, 55% 10 mM HEPES buffer). The tubes were transferred to a 37° C. incubator and maintained at 37° C. with gentle agitation for about 16 hours. After the treatment, the samples were transferred to fresh solution of 45% HEPES-buffered ethanol and stored for 14 days at room temperature (˜25° C.). The final tissue to volume ratio for all treatments was approximately 27 ml /g.
as §3, with “45% ethanol solution,” for “1,2-octanediol solutions and with NMP,”, “by ICP.” for “using a standard ICP methodology.”

Another data set has as its system porcine cusp tissue. In words: Calcium and phosphorus content after subcutaneous implantation in rats (Example 2). Format: in vivo, Sprague-Dawley rats. To be noted: 60 days of implantation. As for the experimental part:
as §1, §2, §3

The next data set concerns porcine wall tissue. The data set is described as above. Format: in vivo, Sprague-Dawley rats. The conditions noted are these: 60 days of implantation. As for the experimental part:
as §1, §2, §3

The test system of data set [2] is glutaraldehyde fixed bovine pericardium. In words: Calcification after subcutaneous implantation in rats (Example 1). To be noted: alcohol treatment 24 hrs, retrieved after 60 days. Format: in vivo, Sprague-Dawley rats. How it is done: Bovine pericardium was obtained fresh from the abattoir, trimmed to remove excess fat, and stored in a high osmolarity solution until use. Prior to fixation, the tissue was rinsed thoroughly in phosphate buffered saline (PBS) having a pH of 7.3-7.4. A 0.25% solution of glutaraldehyde was prepared by adding 2.5 ml of a 50% glutaraldehyde solution (Aldrich Chemical) to 500 ml using PBS. Fifteen 1 cm×1 cm samples of bovine pericardium tissue were added to the glutaraldehyde solution and the tube was stored at room temperature for 7 days.
In a sterile hood, glutaraldehyde fixed bovine pericardium pieces were washed with sterile PBS (3 washes, 10 minutes each). The samples were then immersed in a sterile filtered solution of 40% ethanol, 5% octanol, 55% water and treated for 24 hours at room temperature. The tissue was then washed with sterile PBS (3 washes, 10 minutes each), and in sterile filtered 45% ethanol in PBS for about 30 minutes. […]
The calcium content of the retrieved samples was determined by hydrolyzing the samples under acidic conditions and analyzing the digested samples using standard inductively coupled plasma (ICP) emission spectrophotometry. […] The resulting digested sample was diluted with water and analyzed using an ICP spectrophotometer (Varian Inc.; Liberty 100/200 ICP-OCS).

Data set [3] is described as follows: Shrinkage temperature by differential scanning calorimetric analysis. It is filed as physicochemical, bovine.
Description: The samples were then analyzed to evaluate the presence of extractable proteins and to determine shrinkage temperatures.
The shrinkage temperatures of the treated tissues were also determined using standard differential scanning calorimetric analysis. Typically, 2-10 mg of tissue was heated at the rate of 10° C. per minute under nitrogen atmosphere. The onset of the endotherm observed at about 60-90° C. is conventionally attributed to a shrinkage transition, and was used as the shrinkage temperature. An increase in the shrinkage temperature is an indication that cross-linking has occurred.
For these experiments, bovine pericardium samples were placed in 0.25% solutions of glutaraldehyde in PBS where they remained at room temperature for about 7 days. The cross-linked tissues were then subjected to either 1,2-octanediol or NMP treatments, as described above. The treated samples were then analyzed for extractable proteins and to determine shrinkage temperatures.
[4] abbreviates: treated at 37° C. about 16 hours (Example 3).

As for `CCCCCCC(O)CO` (centres unmarked) [1,2-octanediol], the values for the Calcuim (in data set [1]; in the data set on porcine cusp tissue; in the data set with porcine wall tissue) were 3.4 μg/mg tissue, 44.1 μg/mg tissue and 106.4 μg/mg tissue, respectively. The Phosphorus is 0 μg/mg tissue in data set [1], 21.9 μg/mg tissue in the data set with porcine cusp tissue and 53.0 μg/mg tissue with porcine wall tissue.

With `CCO` [45% EtOH, ethanol], in data set [2] (glutaraldehyde 0.25%, 14 days (45% EtOH) or 7 days (octanol), ICP), the Calcium amounted to 168 μg/mg dry tissue. Moreover, the “Average von Kossa Grading” value in data set [2] (graded from 0 (none) to 5 (severe)) is listed as 5. In addition, in data set [1] (setting [4]), the Calcuim was 3.4 μg/mg tissue and the Phosphorus was found to be 0.0 μg/mg tissue. For the same compound, in data set [1] (Example 3), the “calcium and phosphorus levels compared with no anticalcification treatment” value is reported as “significant reduction”.

Turning to `CN1CCCC1=O` [NMP, N-methyl pyrolidinone], the “effect on shrinkage temperature compared with untreated tissue” value in data set [3] is “no significant effect”. The “Shrink Temperature” value in data set [3] (glutaraldehyde 0.25% about 7 days, then post-fixation treatment) amounted to 85.6 °C. Also, the Calcuim in data set [1] is given as 8.0 μg/mg tissue; in the data set on porcine cusp tissue it was 14.7 μg/mg tissue; in the data set with porcine wall tissue, 111.9 μg/mg tissue. Besides, the figures for the Phosphorus (in data set [1]; in the data set with porcine cusp tissue; with porcine wall tissue) were 3.4 μg/mg tissue, 7.9 μg/mg tissue and 55.2 μg/mg tissue, respectively. The “calcium and phosphorus levels of explanted tissues” value in data set [1] (all tissue types, most pronounced with bovine pericardium) is listed as “significantly reduced”.
